According to paper PMC3948622, “Docking, Synthesis and Antiproliferative Activity of N-Acylhydrazone Derivatives Designed as Combretastatin A4 Analogues” (PLoS ONE, 2014):

Legend:
[1] = system: SF-295 (human glioblastoma); experiment: In vitro antiproliferative MTT assay, SF-295; type: cell-based
Experimental: (§1) The antiproliferative activity of compounds 5a–r was determined based on an MTT assay and using CA-4 as standard against the tumor cell lines: HL-60 (human leukemia), SF-295 (human glioblastoma), MDA-MB435 (melanoma), PC3M (prostate cancer), OVCAR-8 (ovaries adenocarcinoma), NCI-H258M (pulmonary bronchio-alveolar carcinoma) and HCT-8 (adenocarcinoma ileocecal) (Table 2). To determine the selectivity index of compounds 5a–r, their antiproliferative profile was also evaluated toward human lymphocytes (Table 2).
(§2) Compounds (0.009–5 µg/mL) were tested for cytotoxic activity against selected cancer cell lines: SF-295 (glioblastoma), HCT-8 (colon), MDAMB-435 (melanoma), HL60 (leukemia), PC3M (prostate cancer), OVCAR-8 (ovaries adenocarcinoma) and NCI-H258M (pulmonary bronchio-alveolar carcinoma). All cell lines were kindly obtained from the National Cancer Institute (Bethesda, MD, USA).Tumor cell proliferation was quantified through the ability of living cells to reduce the yellow dye 3-(4,5-dimethyl-2-thiazolyl)-2,5-diphenyl-2H-tetrazolium bromide (MTT, Sigma Aldrich)) to a purple formazan product and absorbance was measured at 595 nm (DTX-880, Beckman Coulter).

[2] = system: HCT-8 (adenocarcinoma ileocecal); experiment: In vitro antiproliferative MTT assay, HCT-8; type: cell-based
Experimental: as §1, §2

MDA-MB435 (melanoma) [3] = experiment: In vitro antiproliferative MTT assay, MDA-MB435; type: cell-based
Experimental: as §1, §2

PC3M (prostate cancer) = experiment: In vitro antiproliferative MTT assay, PC3M; type: cell-based
Experimental: as §1, §2

human lymphocytes = experiment: In vitro antiproliferative assay, human lymphocytes; type: cell-based; details: Lymphocyte, Table 2
Experimental: as §1
To investigate the selective cytotoxic activity of the N-acylhydrazones derivatives (5a–r), their antiproliferative potency was also assessed toward human lymphocytes and the results were compared to the data from CA-4 ([…]). The selectivity index (SI), which was the IC50 for human lymphocytes/IC50 for cancer cell lines after treatment with CA-4 and N-acylhydrazones (5a–r), was calculated, as depicted in Table 3. […] The best comparative selectivity indices (CA-4 vs 5b) were obtained from the SF-295 (SI = 13), MDA-MB435 (SI = 42) and NCI-H258M (SI = 9.5) tumor cell lines, and the worst results were found for OVCAR-8 (SI = 0.5).

SF-295 (glioblastoma) = experiment: Hollow Fiber Assay (HFA), SF-295 fibers s.c. in mice; type: in vivo, BALB/c nude mice; details: 4 days; for Proliferation (OD595 nm) SF-295: mean ± S.E.M.
Experimental: (§3) Cell culture of SF-295 (glioblastoma) and HCT-116 (colon carcinoma) was performed in RPMI 1640 medium supplemented with 10% fetal bovine serum, 2 mM glutamine, at 37°C with 5% CO2.
(§4) Polyvinylidene fluoride (PVDF) HFs with a 1-mm internal diameter and a molecular weight cutoff point of 500 kDa were used (Spectrum Laboratories, Houston, TX). The fibers were cut into pieces 12–15 cm long, washed 2× with sterile distilled water and kept in sterile conditions.
(§5) Before use, under sterile conditions, the fibers were incubated in complete RPMI with 20% fetal bovine serum (FBS) overnight (packaging time). Cell viability was assessed by trypan blue exclusion assay. Then, a cell suspension of 7.0×10^6 cell/mL at 4°C was injected into the fiber, with the ends thereof immediately heat-sealed. The fibers were cut into 2 cm each, transferred to petri plates and incubated in complete RPMI medium for 24 h prior to implantation in mice. Each cell was injected into one fiber of a different color (HCT-116, yellow fibers; SF-295, blue fibers).
(§6) Each animal received 2 fibers at s.c. site. All incisions were sealed with a surgical stapler.
(§7) Tumor cell proliferation was quantified through the ability of living cells to reduce the yellow dye 3-(4,5-dimethyl-2-thiazolyl)-2,5-diphenyl-2H-tetrazolium bromide (MTT, Sigma Aldrich) to a purple formazan product. For this purpose, the fibers removed from animals were incubated with MTT 1 mg/mL in 6-well plates during 4 h at 37°C, 5% CO2 and 95% humidity. The MTT solution was aspirated; fibers were washed with saline solution containing protamine sulphate 2.5% and incubated in protamine solution overnight at 4°C. Fibers were transferred to 24 well plates, cut into 2 or 3 pieces and put to dry. The formazan was dissolved in […] of DMSO, aliquots (150 uL) were transferred to 96 well plates and absorbance was measured at 595 nm (DTX-880, Beckman Coulter).

[4] = system: HCT-116 (colon carcinoma); experiment: Hollow Fiber Assay (HFA), HCT-116 fibers s.c. in mice; type: in vivo, BALB/c nude mice; details: 4 days; for Proliferation (OD595 nm) HCT-116: mean ± S.E.M.
Experimental: as §3, §4, §5, §6, §7

tumor cell lines = experiment: In vitro antiproliferative MTT assay, tumor cell lines (summary over the panel); type: cell-based; details: summary in text over the cell lines of Table 2; read-out: IC50 (antiproliferative potency over the tumor cell lines)
Experimental: as §1, §2

MDA-MB435 (melanoma) [5] = experiment: In vitro antiproliferative MTT assay, MDA-MB435; type: cell-based; details: Homo sapiens, MDA-MB-435; Table 2; MTT
[6] = IC50 for human lymphocytes/IC50 for cancer cell line
[7] = SI of 5b relative to SI of CA-4

COc1cc(C(=O)N/N=C/c2ccccc2)cc(OC)c1OC [Compound 5b, (E)-N′benzylidene-3,4,5-trimetoxybenzohydrazide]
IC50 ([1]; Homo sapiens, SF-295, Table 2, MTT, read-out: IC50 SF295): 260 nM
SI Lymphocyte/ SF-295 [1, 6]: 4.88±0.42
comparative selectivity index (CA-4 vs 5b) SF-295 [1, 7]: 13
IC50 ([2]; Homo sapiens, HCT-8, Table 2, MTT): 450 nM
SI Lymphocyte/ HCT-8 [2, 6]: 2.86±0.13
SI Lymphocyte/ MDA-MB345 (MDA-MB435 (melanoma) [3]; [6]): 20.07±0.93
comparative selectivity index (CA-4 vs 5b) MDA-MB435 (MDA-MB435 (melanoma) [3]; [7]): 42
IC50 (PC3M (prostate cancer); Homo sapiens, PC-3M, Table 2, MTT): 800 nM
SI Lymphocyte/ PC3M (PC3M (prostate cancer); [6]): 1.60±0.10
IC50 (human lymphocytes): 1340 nM
Inhibition (%) SF-295 (SF-295 (glioblastoma); 25 mg/kg/day intraperitoneally): 61.89%
Proliferation (OD595 nm) SF-295 (SF-295 (glioblastoma); 25 mg/kg/day intraperitoneally): 0.57±0.05 OD595 nm
Inhibition (%) SF-295 (SF-295 (glioblastoma); 50 mg/kg/day intraperitoneally): 72.68%
Proliferation (OD595 nm) SF-295 (SF-295 (glioblastoma); 50 mg/kg/day intraperitoneally): 0.41±0.06 OD595 nm
Inhibition (%) HCT-116 ([4]; 25 mg/kg/day intraperitoneally): 82.89%
Proliferation (OD595 nm) HCT-116 ([4]; 25 mg/kg/day intraperitoneally): 0.26±0.04 OD595 nm
Inhibition (%) HCT-116 ([4]; 50 mg/kg/day intraperitoneally): 80.76%
Proliferation (OD595 nm) HCT-116 ([4]; 50 mg/kg/day intraperitoneally): 0.29±0.05 OD595 nm
IC50 (tumor cell lines): 64 to 800 nM
IC50 (MDA-MB435 (melanoma) [5]): 64 nM
